The results in this text go back to patent publication US20070213359A1 (ACADIA Pharmaceuticals Inc., priority 2005, published 2007).

Where two headings read alike, the source gives them in different places.

The assay has as its target Ghrelin receptor (Homo sapiens, UniProt Q92847). The assay can be described thus: Receptor Selection and Amplification Technology (R-SAT) assay. Type of assay: cell-based. Further details: expressed in transfected cells; host or cells: NIH3T3. The conditions noted are these: for IC50: '—' not defined (nd used separately), read-out: RSAT pIC50 (converted); for Emax: read-out: RSAT Eff(%).

Setting [1] is: negative logarithm of ligand concentration causing 50% inhibition of constitutive receptor response, transfected NIH3T3 cells.
Setting [2] is: percent inhibition at saturating ligand, normalized to reference ligand Substance P analog = 100%.

Sequence of Ghrelin receptor (Q92847 whole entry): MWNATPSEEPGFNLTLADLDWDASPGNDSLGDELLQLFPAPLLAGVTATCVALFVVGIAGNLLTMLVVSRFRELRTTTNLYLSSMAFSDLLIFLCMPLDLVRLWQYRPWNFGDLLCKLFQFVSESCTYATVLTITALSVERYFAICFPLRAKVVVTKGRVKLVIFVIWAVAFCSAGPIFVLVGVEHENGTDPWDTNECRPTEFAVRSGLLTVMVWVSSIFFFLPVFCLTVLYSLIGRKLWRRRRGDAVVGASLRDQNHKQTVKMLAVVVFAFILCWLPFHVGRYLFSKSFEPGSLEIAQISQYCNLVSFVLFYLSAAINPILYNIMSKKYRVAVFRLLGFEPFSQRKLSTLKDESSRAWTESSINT

For `CC(=O)c1cn(CCCN2CCC(Oc3cccc(Cl)c3)CC2)c2c(Br)cccc12`, under setting [1], the IC50 was 0.001 µM. Further, under setting [2], the Emax was found to be 92%.
For `COc1cccc2c(C(=O)C3CC3)cn(CCCN3C4CCC3CC(CCc3ccccc3)C4)c12` (stereo not shown), the Emax is 109%. Further, the IC50 ([…]) is 0.00251 µM.
As to `CC(=O)c1cn(CCCN2CCCN(Cc3ccc(F)cc3)CC2)c2c(C)cccc12`, the Emax amounted to 95%. For the same molecule, under “[…]”, the IC50 is 0.00251 µM.
The corresponding values for `COc1cccc2c(C(=O)NCc3cccc(Cl)c3)cn(CCCN3CCCN(Cc4ccc(F)cc4)CC3)c12` are 113% and 0.00316 µM.
In the case of `COc1cccc2c(C(=O)Cc3ccccc3)cn(CCCN3C4CCC3CC(Oc3ccccc3Cl)C4)c12` (stereo not shown), the Emax is 129%. Further, the IC50 ([…]) was 0.00398 µM.
As to `COc1cccc2c(C(=O)C3CC3)cn(CCCN3CCC4(CC3)CC(=O)c3ccccc3O4)c12`, the Emax turned out to be 106%. For the same molecule, where the note is “[…]”, the IC50 was 0.00398 µM.
On to `CC(=O)c1cn(CCCN2CCCN(Cc3ccc(F)cc3)CC2)c2ncccc12`, for which the IC50 under setting [1] was 0.00501 µM. Further, the Emax under setting [2] worked out at 136%.
The corresponding values for `CC(=O)c1cn(CCCN2CCCN(Cc3ccc(F)cc3)CC2)c2c(Br)cccc12` are 0.00501 µM and 95%.
In the same order, the values of `CC(=O)c1cn(CCCN2C3CCC2CC(CCc2ccccc2)C3)c2c(C)cccc12` (stereo not shown) are 0.00631 µM and 105%.
For the molecule `CC(=O)c1cn(CCCN2CCCN(Cc3ccc(F)cc3)CC2)c2c(Cl)cccc12`, under setting [1], the IC50 is 0.00794 µM. Moreover, the Emax under setting [2] worked out at 115%.
The corresponding values for `CC(=O)c1cn(CCCN2CCCN(CCc3ccccc3)CC2)c2c(Cl)cccc12` are 0.01 µM and 96%.
In the same order, the values of `CC(=O)c1cn(CCCN2CCC(Oc3cccc(Cl)c3)CC2)c2c(C)cccc12` are 0.01 µM and 96%.
In the case of `CC(=O)c1cn(CCCN2C3CCC2CC(CCc2ccccc2)C3)c2c(Cl)cccc12` (stereo not shown), the IC50 under setting [1] is 0.0126 µM. The Emax under setting [2] is 109%.
In the same order, the values of `COc1cccc2c(C#N)cn(CCCN3CCCN(Cc4ccc(F)cc4)CC3)c12` are 0.0158 µM and 109%.
Consider `CC(=O)c1cn(CCCN2CCN(Cc3ccc(Cl)cc3Cl)CC2)c2c(C#N)cccc12`, for which the IC50 under setting [1] was 0.0158 µM. Further, the Emax under setting [2] was 92%.
In the same order, the values of `CC(=O)c1cn(CCCN2C3CCC2CC(Oc2ccc(F)cc2)C3)c2c(Br)cccc12` (stereo not shown) are 0.0158 µM and 81%.
In the case of `COc1cccc2c(C(=O)NCc3cccc(C)c3)cn(CCCN3C4CCC3CC(Oc3ccc(F)cc3)C4)c12` (stereo not shown), under setting [1], the IC50 is 0.0158 µM. In addition, the “RSAT Eff(%)” value under setting [2] stood at 112%.
For `CC(=O)c1cn(CCCN2C3CCC2CC(Oc2ccc(F)cc2)C3)c2c(C)cccc12` (stereo not shown), the IC50 under setting [1] was 0.02 µM. Moreover, the Emax under setting [2] amounted to 98%.
On to `CCc1cccc2c(C(C)=O)cn(CCCN3CCCC(Cc4ccccc4Cl)C3)c12` (stereo not shown), for which the IC50 under setting [1] was 0.02 µM. The Emax under setting [2] was 87%.
Regarding `CC(=O)c1cn(CCCN2CCC(c3nc(-c4ccncc4)no3)CC2)c2c(C)cccc12`, the IC50 under setting [1] was 0.0316 µM. In addition, the Emax under setting [2] was found to be 137%.
Regarding `CC(=O)c1cn(CCCN2C3CCC2CC(CCc2ccc(Cl)cc2)C3)c2c(Cl)cccc12` (stereo not shown), under setting [1], the IC50 is 0.0316 µM. Further, the Emax under setting [2] turned out to be 122%.
In the same order, the values of `CCc1cccc2c(C(C)=O)cn(CCCN3CCCN(CCc4ccccc4)CC3)c12` are 0.0316 µM and 103%.
Turning to `COc1cccc2c(C(=O)NCc3cccc(C)c3)cn(CCCN3CCC(Oc4cccc(Cl)c4)CC3)c12`, the Emax is 93%. The IC50 under setting [1] was 0.0316 µM.
The corresponding values for `COc1cccc2c(C(=O)NCC(C)C)cn(CCCN3CCC(Oc4cccc(Cl)c4)CC3)c12` are 71% and 0.0316 µM.
Take `CC(=O)c1cn(CCCN2CCN(CCOc3ccccc3)CC2)c2c(C#N)cccc12`: the IC50 under setting [1] was 0.0316 µM. Further, the Emax under setting [2] stood at 86%.
In the case of `CC(=O)c1cn(CCCN2CCN(c3nc(-c4cccnc4)no3)CC2)c2c(C)cccc12`, the Emax came to 110%. Also, the IC50 ([…]) is 0.2 µM.
The corresponding values for `CCCCC[C@H]1C[C@H]2CC[C@@H](C1)N2CCCn1cc(C(=O)c2ccccc2)c2cccc(OC)c21` are 91% and 0.2 µM.
In the same order, the values of `CCCCC[C@H]1C[C@H]2CC[C@@H](C1)N2CCCn1cc(C(=O)C2CC2)c2cccc(OC)c21` are 101% and 0.2 µM.
Take `COc1cccc2c(C(=O)c3ccccc3)cn(CCCN3CCC4(CC3)CC(=O)c3ccccc3O4)c12`: the Emax was found to be 60%. Moreover, the IC50 ([…]) was 0.2 µM.
In the case of `COc1ccc2c(C(C)=O)cn(CCCN3CCC(c4ccccc4OC)CC3)c2c1`, the Emax was 72%. Also, for the setting “[…]”, the IC50 was 0.251 µM.
As to `COc1cccc2c(C(=O)c3ccccc3)cn(CCCN3C4CCC3CC(CC(=O)c3ccc(Cl)cc3)C4)c12` (stereo not shown), the Emax worked out at 143%. Further, under “[…]”, the IC50 is 0.251 µM.
In the same order, the values of `COc1cccc2c(C(=O)C3CC3)cn(CCCN3CCC(CCOc4ccc(Cl)cc4)CC3)c12` are 89% and 0.316 µM.
For `COc1cccc2c(C(=O)NCc3cccc(Cl)c3)cn(CCCN3CCC(Oc4ccc(F)cc4)CC3)c12`, the Emax turned out to be 106%. Besides, the IC50 ([…]) was 0.316 µM.
In the same order, the values of `CCCCC[C@H]1C[C@H]2CC[C@@H](C1)N2CCCn1cc(C(C)=O)c2cccc(Cl)c21` are 72% and 0.316 µM.
In the same order, the values of `COc1cccc2c(C(=O)c3ccccc3)cn(CCCNC3Cc4ccccc4C3)c12` are 93% and 0.316 µM.
The corresponding values for `COc1cccc2c(C(=O)NCc3cccc(Cl)c3)cn(CCCN3C4CCC3CC(CC(=O)c3ccc(Cl)cc3)C4)c12` (stereo not shown) are 76% and 0.316 µM.
As for `COc1cccc2c(C(=O)Cc3ccccc3)cn(CCCN3CCCC(Oc4ccc(Cl)cc4)C3)c12` (stereo not shown), the Emax was determined as 86%. For the same molecule, the IC50 ([…]) is 0.316 µM.
The corresponding values for `CC(C)CC(=O)c1cn(CCCN2CCN(C(C)c3ccccc3)CC2)c2ccccc12` (stereo not shown) are 106% and 0.398 µM.
The corresponding values for `CC(=O)c1cn(CCCCN2CCC(Oc3ccccc3Cl)CC2)c2ccccc12` are 46% and 0.398 µM.
In the case of `COc1cccc2c(C(=O)C3CC3)cn(CCCN3CCC(C(=O)c4ccccc4)CC3)c12`, the Emax stood at 100%. Further, the IC50 ([…]) is 0.398 µM.
In the same order, the values of `COc1cccc2c(C(=O)C3CC3)cn(CCCN3CCC(Oc4ccc(Cl)cc4)CC3)c12` are 90% and 0.501 µM.
In the same order, the values of `CC(=O)c1c(C)n(CCCN2CCCN(CCc3ccccc3)CC2)c2c(Br)cccc12` are 42% and 0.501 µM.
The corresponding values for `CC(=O)c1cn(CCCN2C3CCC2CC(Oc2ccc(Cl)cc2)C3)c2ccccc12` (stereo not shown) are 108% and 0.501 µM.
As for `COc1cccc2c(C(=O)c3ccccc3)cn(CCCN3CCC(C(=O)c4ccccc4)CC3)c12`, the Emax stood at 102%. Also, the IC50 ([…]) was 0.501 µM.
In the same order, the values of `COc1cccc2c(C(=O)C3CC3)cn(CCCN3CCC(c4nc5ccccc5s4)CC3)c12` are 88% and 0.501 µM.
In the same order, the values of `CCCOC1CCN(CCCn2cc(C(C)=O)c3ccccc32)CC1` are 112% and 0.631 µM.
In the same order, the values of `COc1ccccc1C1CCN(CCCn2cc(C(=O)NCc3cccc(Cl)c3)c3cccc(OC)c32)CC1` are 127% and 0.631 µM.
On to `COc1ccc2[nH]c3c(c2c1)CCN(CCCn1cc(C(C)=O)c2ccc(OC)cc21)C3`, for which the IC50 ([…]) was 0.794 µM. Under setting [2], the Emax was determined as 69%.
For the molecule `COc1ccc2[nH]c3c(c2c1)CCN(CCCn1cc(C(C)=O)c2ccccc21)C3`, the IC50 ([…]) is 0.794 µM. Under setting [2], the Emax is 76%.
On to `CCCCC1CCN(CCCCn2cc(C(C)=O)c3ccccc32)CC1`, for which the Emax was found to be 113%. In addition, the IC50 ([…]) was 0.794 µM.
Regarding `COc1cccc2c(C(C)=O)cn(CCCN3CCC(N4CCOCC4)CC3)c12`, the Emax was determined as 95%. Moreover, the IC50 ([…]) is 1 µM.
The corresponding values for `CCC(=O)c1cn(CCCN2CCC(O)(Cc3ccccc3)CC2)c2ccccc12` are 73% and 1 µM.
In the same order, the values of `CC(=O)c1cn(CCCN2C3CCC2CC(CC(=O)c2ccccc2)C3)c2c(Cl)cccc12` (stereo not shown) are 85% and 1.58 µM.
Regarding `COc1cccc2c(C(C)=O)cn(CCCN3CCN(CC(=O)N4CCOCC4)CC3)c12`, the Emax is 37%. Moreover, the IC50 ([…]) was 1.58 µM.
The corresponding values for `COc1cccc2c(C(=O)NCc3cccc(Cl)c3)cn(CCCN3CCCC(Cc4ccccc4Cl)C3)c12` (stereo not shown) are 47% and 2 µM.
In the same order, the values of `COc1cccc2c(C(=O)C3CC3)cn(CCCN3C4CCC3CC(CC(=O)c3ccccc3)C4)c12` (stereo not shown) are 86% and 2 µM.
Consider `COc1cccc2c(C(=O)NCc3cccc(Cl)c3)cn(CCCN3CCC(C(=O)c4ccccc4)CC3)c12`, for which the Emax is 114%. In addition, the IC50 ([…]) was 2.51 µM.
In the same order, the values of `CC(=O)c1cn(CCCN2CCC(C(=O)c3ccccc3)CC2)c2cc(Br)ccc12` are 36% and 2.51 µM.
Turning to `CCCOC1CCN(CCn2cc(C(C)=O)c3ccccc32)CC1`, the Emax was determined as 40%. For the setting “[…]”, the IC50 is 3.16 µM.
The corresponding values for `CCOC(=O)C1CCN(CCn2cc(C(C)=O)c3ccccc32)CC1` are 72% and 3.98 µM.
In the same order, the values of `COc1ccccc1C1CCN(CCn2cc(C(C)=O)c3ccccc32)CC1` are 44% and 5.01 µM.
In the same order, the values of `CCOC(=O)C1CCN(CCCn2cc(C(=O)C(F)(F)F)c3ccccc32)CC1` are 64% and 5.01 µM.
